Experimental data as given in patent US20180369203A1, “METHODS OF TREATING CANCER BY ADMINISTERING A MEK INHIBITOR IN COMBINATION WITH A PROTEASOME INHIBITOR” (The Jackson Laboratory, priority 2015, published 2018).

System: Aβ1-42 peptides
Assay: In vitro amyloid seeding of Aβ1-42 with lysates of treated A2058 cells (ThT binding, TEM)
Type: cell-based, human
Description: FIGS. 5A-Y show MEK and proteasome inhibition provoke protein aggregation and amyloidogenesis. (A-B) WM115 cells treated with 20 nM AZD6244, 100 nM Bortezomib, or both for 24 hr were stained with Lys48-specific ubiquitin antibodies. Arrowheads mark ubiquitin-positive aggregates. Scale bar: 10 μm. Amounts of aggregates per cell were quantitated using ImageJ (median, n≥100, ANOVA). (C-F) Following transfection with polyQ79 plasmids alone or with both polyQ79 and HSF1^S326D plasmids for one day, HEK293T cells were treated with inhibitors as described in (A-B). Cells were either analyzed for aggregate size or stained with 10 μM ThT. (G) Treated tumor cell lines were stained with 10 μM ThT. Geometric means were used to calculate fold changes in ThT fluorescence intensity and the log 2(FC) values were presented as a heat map. […] Following treatments, AOs were quantitated by ELISA using A11 antibodies (mean±SD, n=3, ANOVA). (I) Intrinsic AOs were detected in human tumor cell lines (mean±SD, n=3, ANOVA). […] Amyloids were quantitated by ELISA (mean±SD, n=3, Student's t-test). […] AF formation was monitored by ThT binding (mean±SD, n=3, ANOVA). […] Amyloids were quantitated (mean±SD, n=3, Student's t-test). […] Viable cells were quantitated by CellTiter® blue (mean±SD, n=6, Student's t-test). […] Viable cells were quantitated (mean±SD, n=6, ANOVA). […]
This figure is related to FIG. 5. […] (C) Quantitation of protein aggregate size. […]

## CC(C)C[C@H](NC(=O)[C@H](Cc1ccccc1)NC(=O)c1cnccn1)B(O)O [Bortezomib, bortezomib]
20 μM Aβ1-42, ThT binding
  amyloid seeding efficacy of cell lysates: augmented
37° C., 2 days
  fibril morphology after seeding (transmission electron microscopy): mature fibrils
